Data on 20 molecules can be found in patent publication US5756505A, “N-acylpiperazine derivative, antibacterial drug and anti-ulcer drug” (Shiseido Co., Ltd., priority 1995, dated 1998).

Read-outs that look alike come from different tables or passages of the source.

Data set [1] has as its system isolated gastric fundic gland. Description: CAP: Acid Secretion Inhibition Test In Vitro ([14C]-aminopyrine uptake). The format is cell-based, rabbit (male Japanese White). To be noted: for inhibition at 10 µM: Oryctolagus cuniculus, read-out: CAP: acid secretion inhibitory rate. The protocol: CAP: Acid Secretion Inhibition Test In Vitro
The acid secretion inhibitory activity in a cell level is studied. It can also be used for studying the mechanism of the effect. […]
ii-a) Preparation of isolated gastric fundus gland suspension
First, an isolated gastric fundic gland sample was prepared. Namely, a male Japanese White rabbit (2.5 to 3 kg) was anesthetized to death with Nembutal™ and then the abdomen was incised. Immediately thereafter, the stomach was removed and, after its pyloric and cardiac antrum were severed, incised along its greater curvature into two sheets. The gastric contents adhering to the mucosal surface was washed out with ice-cooled PBS (-) and then carefully washed therein. The gastric wall was spread on a cork board with its mucosal surface facing up and the feed and mucus thereon were completely removed with sterile gauze. The mucosa was separated therefrom by a spatula and then collected in ice-cooled PBS (-). After being washed twice with PBS (-), the mucosa was minced into 2-3mm^3 pieces by scissors. These pieces were further washed twice with a nutrient solution. The nutrient solution comprises 132.4 mM of NaCl, 5.4 mM of KCl, 5 mM of Na2 HPO4 ·12H2 O, 1 mM of NaH2 PO4 ·2H2 O, 1.2 mM of MgSO4, 1 mM of CaCl2, 25 mM of HEPES, 2mg/ml of glucose, and 1 mg/ml of BSA. Into 70 ml of the nutrient solution containing 1 mg/ml of collagenase, minced mucosal pieces were dispersed and intensely stirred in a conical flask with a stirrer at 37° C. for 40 to 60 minutes. During this period, 100% O2 was sprayed on the nutrient solution surface and the pH was appropriately measured such that it was immediately adjusted to pH 7.4, when the value was therebelow, with a base. The nutrient solution was added to the reaction solution so as to attain the total amount of about 200 ml. After being filtered through a mesh, the suspension was divisionally introduced into 50 ml centrifuge tubes and left for 15 minutes such that gastric fundic gland was deposited. The supernatant was repeatedly removed by an aspirator, dispersed in the nutrient solution, and then left such that the gastric fundic gland was washed three times. At this time, without using a pipette, the suspension was alternately introduced into two centrifuge tubes so as to effect dispersion. The number of cells was counted under microscope and adjusted to 1.6×10^6 cells/ml. […]
ii-b) [^14 C]-aminopyrine uptake test
Then, [^14 C]-aminopyrine uptake test was performed. After an Eppendorf tube was weighed, 10 μl (final concentration: 10^-5 M) of histamine dissolved in the above-mentioned nutrient solution, 10 μl (final concentration: 10^-5 M) of the test compound dissolved in DMSO, and 10 μl (final concentration: 0.05 μCi/ml) of [^14 C]-aminopyrine diluted with the nutrient solution were introduced therein and then 970 μl of the isolated gastric fundic gland suspension prepared above were added thereto. Subsequently, this mixture was shaken at 37° C. for 40 minutes at 125 cycles/minute. After being centrifuged for 30 minutes 200 μl of its supernatant was collected into a mini-vial, while the rest was removed by an aspirator. The gland pellet was completely dried as the tube with its lid being opened was kept for one night in a drying oven at 80° C. and then the lid was closed and the weight was determined at room temperature. Then 100 μl of 1N KOH were added thereto and the tube with its lid being closed was treated at 60° C. for 1 to 2 hours so as to dissolve the pellet. Then, the contents thereof were transferred to a mini-vial. Into the mini-vial containing the supernatant or gland pellet, 4 ml of Atomlite™ were added and then the radioactivity was measured by a liquid scintillation counter. Here, after the radioactivity of the gland pellet was corrected by using a sample in which 20 mM of NaSCN were added so as to cancel the hydrogen ion concentration gradient, the integration ratio of aminopyrine specifically trapped by the gland pellet was calculated. […]

A short description of data set [2]: MTT: Cell Damaging and Protecting Effect Test. To be noted: rabbit, gastric mucosal cells. The format is cell-based, rabbit (male Japanese White). The text has this: MTT: Cell Damaging and Protecting Effect Test
It is confirmed that there is no toxicity in cell level. Those having a toxicity in cell level are inappropriate as an anti-ulcer drug.
A male Japanese White rabbit (2.5 to 3 kg) was anesthetized to death by Nembutal™ and, immediately thereafter, its stomach was removed. The greater curvature of the stomach was incised so as to remove the stomach contents therefrom. After the mucosal surface was washed with HBSS (Hanks' Balanced Salt Solution), the stomach in ice-cooled HBSS was transferred to a laboratory. Then, after the pyloric antrum was removed, the gastric corpus mucosa was separated by a spatula and then minced into 2 to 3 mm^3 pieces in BME (Basal Medium Eagle). Thereafter, these pieces were shaken at 120 to 130 cycles/minute for 15 minutes at 37° C. in BME 60ml containig 280 U/ml of dispase and 30 to 50 U/ml of collagenase. Here, the concentration of collagenase was appropriately changed for each lot in view of the state of cells. The pieces were washed twice with EBSS (Earle's Balanced Salt Solution) containing 1 mM of EDTA and then shaken in MEM (Minimum Essential Medium) containing 1 mM of EDTA at 37° C. for 5 minutes. Subsequently, they were shaken in the dispase and collagenase having the same concentrations as those mentioned above for 15 minutes so as to remove the supernatant and then further shaken at 37° C. for 50 to 60 minutes at 120 to 130 cycles/minute. Then, after being washed twice with HBSS, Ham F12 containing 2% of Ultrocer G™ was used to attain the concentration of 1×10^6 cells/ml. Thus formed suspension was dispensed in each well of a 96-well plate by 200 μl. The plate was incubated in the atmosphere composed of 5% CO2 and 95% air at 37° C. for three days so as to attain a confluent state and then subjected to MTT assay.
The sample compound was dissolved in DMSO so as to attain a concentration of 10^-2 M and then diluted with HBSS containing 2% of Ultrocer G™ so as to attain a final concentration of 10^-4 M. To each group, which 8 wells were used for, 10 μl of MTT reagent were added immediately after 100 μl of the medium in each well were exchanged for same volume of the resulting solution of the sample compound. After being incubated in an atmosphere composed of 5% CO2 and 95% air at 37° C. for 4 hours, thus formed solution was centrifuged and then its supernatant was discarded. Subsequently, 100 μl of 100% ethanol were added to the residue so as to dissolve MTT formazan. Then, the absorbance (OD: 570 to 630) was measured by a microplate reader. This method utilizes a phenomenon in which MTT is changed to MTT formazan only by mitochondria of living cells so as to change color.
The cell damaging or cell protecting effect of the sample compound at the final concentration of 10^-4 M was expressed as cell damaging rate (%) as follows:
cell damaging rate (%)=[1-(absorbance in sample group/absorbance in control group)]×100
Accordingly, the smaller value is better in the cell damaging rate.

Setting [3] is: final concentration 10^-5 M, histamine 10^-5 M, rabbit gastric fundic gland.
The mark [4] stands for this setting: final concentration 10^-4 M, 4 hours, smaller value is better, read-out: MTT: cell damaging rate.

In the case of `CC(C)CN1CCN(C(=O)c2ccc(OCc3ccc(F)cc3)cc2)CC1.Cl` [Example 2, 1-[4-(4-fluorobenzyloxy)benzoyl]-4-isobutylpiperazine hydrochloride], in data set [1] (setting [3]), the inhibition at 10 µM amounted to 99%.

Take `CC(C)CN1CCN(C(=O)c2ccc(OCc3ccccc3)cc2)CC1` [Example 3, 1-(4-benzyloxybenzoyl)-4-isobutylpiperazine]: the cytotoxicity at 4 h, 100 µM in data set [2] (setting [4]) is -16%. Besides, in data set [1] (setting [3]), the inhibition at 10 µM is 85%. `C=C(C)Cc1cc(C(=O)N2CCN(CC(C)C)CC2)ccc1OCc1ccc(F)cc1.Cl` [Example 4, 1-[4-(4-fluorobenzyloxy)-3-methallylbenzoyl]-4-isobutylpiperazine hydrochloride]: in data set [2] (setting [4]), the cytotoxicity at 4 h, 100 µM was -67%. Moreover, the inhibition at 10 µM in data set [1] (setting [3]) is 94%. For the molecule `CC(C)CN1CCN(C(=O)c2ccc(OCc3ccc(F)cc3)cc2)CC1` [Example 5, 1-[4-(4-fluorobenzyloxy)benzoyl]-4-isobutylpiperazine], the “CAP: acid secretion inhibitory rate” value in data set [1] (setting [3]) turned out to be 96%. Take `CC(C)Cc1cc(C(=O)N2CCN(C(=O)C(C)C)CC2)ccc1OCc1ccc(F)cc1` [Example 6, 1-[4-(4-fluorobenzyloxy)-3-isobutylbenzoyl]-4-isobutyrylpiperazine]: the cytotoxicity at 4 h, 100 µM in data set [2] (setting [4]) is -29%. For the same molecule, the inhibition at 10 µM in data set [1] (setting [3]) was 57%. Take `CC(C)CN1CCN(C(=O)c2ccc(OCc3ccc(F)cc3)c([N+](=O)[O-])c2)CC1.Cl` [Example 8, 1-[4-(4-fluorobenzyloxy)-3-nitrobenzoyl]-4-isobutylpiperazine hydrochloride]: the cytotoxicity at 4 h, 100 µM in data set [2] (setting [4]) is -65%. In data set [1] (setting [3]), the inhibition at 10 µM was determined as 100%. For `CC(C)Cc1cc(C(=O)N2CCN(CCO)CC2)ccc1OCc1ccc(F)cc1` [Example 9, 1-[4-(4-fluorobenzyloxy)-3-isobutylbenzoyl]-4-(2-hydroxyethyl)piperazine] the same measures were 26% and 100%. For `Cc1cccc(COc2ccc(C(=O)N3CCN(CC(C)C)CC3)cc2CC(C)C)c1F.Cl` [Example 12, 1-[4-(2-fluoro-3-methylbenzyloxy)-3-isobutylbenzoyl]-4-isobutylpiperazine hydrochloride], the cytotoxicity at 4 h, 100 µM in data set [2] (setting [4]) is -15%. Also, the inhibition at 10 µM in data set [1] (setting [3]) came out at 100%.

For the molecule `CC(C)Cc1cc(C(=O)N2CCN(CC(C)C)CC2)ccc1OCc1ccc([N+](=O)[O-])cc1.Cl` [Example 13, 1-isobutyl-4-[3-isobutyl-4-(4-nitrobenzyloxy)benzoyl]piperazine hydrochloride], the cytotoxicity at 4 h, 100 µM in data set [2] (setting [4]) is -66%.

On to `COc1ccc(COc2ccc(C(=O)N3CCN(CC(C)C)CC3)cc2CC(C)C)cc1` [Example 14, 1-isobutyl-4-[3-isobutyl-4-(4-methoxybenzyloxy)benzoyl]piperazine], for which, in data set [2] (setting [4]), the cytotoxicity at 4 h, 100 µM was 11%. In data set [1] (setting [3]), the inhibition at 10 µM is 100%. Consider `CC(C)Cc1cc(CC(=O)N2CCN(CC(C)C)CC2)ccc1OCc1ccccc1` [Example 15, 1-(4-benzyloxy-3-isobutylphenylacetyl)-4-isobutylpiperazine], for which, in data set [2] (MTT: cell damaging rate), the cytotoxicity at 4 h, 100 µM was -55%. Further, the inhibition at 10 µM in data set [1] was determined as 99%. For `CC(C)Cc1cc(C(=O)N2CCN(CC(C)C)CC2)ccc1OCc1ccccc1` [Example 16, 1-(4-benzyloxy-3-isobutylbenzoyl)-4-isobutylpiperazine], the cytotoxicity at 4 h, 100 µM in data set [2] (setting [4]) was -98%. For the same molecule, in data set [1] (setting [3]), the inhibition at 10 µM is 98%. With `CC(C)Cc1cc(C(=O)N2CCN(CC(C)C)CC2)ccc1OCc1ccccc1F` [Example 18, 1-[4-(2-fluorobenzyloxy)-3-isobutylbenzoyl]-4-isobutylpiperazine], the inhibition at 10 µM in data set [1] (setting [3]) is 100%. As for `CC(C)Cc1cc(C(=O)N2CCN(CC(C)C)CC2)ccc1OCc1ccccc1F.Cl` [Example 19, 1-[4-(2-fluorobenzyloxy)-3-isobutylbenzoyl]-4-isobutylpiperazine hydrochloride], the “CAP: acid secretion inhibitory rate” value in data set [1] (setting [3]) came to 95%. For `CC(C)Cc1cc(C(=O)N2CCN(CC(C)C)CC2)ccc1OCc1ccc(F)cc1` [Example 21, 1-[4-(4-fluorobenzyloxy)-3-isobutylbenzoyl]-4-isobutylpiperazine], the inhibition at 10 µM in data set [1] (setting [3]) amounted to 100%. Turning to `CC(C)Cc1cc(C(=O)N2CCN(CC(C)C)CC2)ccc1OCc1ccc(F)cc1.Cl` [Example 22, 1-[4-(4-fluorobenzyloxy)-3-isobutylbenzoyl]-4-isobutylpiperazine hydrochloride], the “CAP: acid secretion inhibitory rate” value in data set [1] (setting [3]) was determined as 98%. Consider `CC(C)Cc1cc(C(=O)N2CCN(CC(C)C)CC2)ccc1OCc1ccc(F)cc1F.Cl` [Example 24, 1-[4-(2,4-difluorobenzyloxy)-3-isobutylbenzoyl]-4-isobutylpiperazine hydrochloride], for which the inhibition at 10 µM in data set [1] (setting [3]) was found to be 99%.

`CC(C)Cc1cc(C(=O)N2CCN(CC(C)C)CC2)ccc1OCc1ccc(F)cc1.O=C(O)C(=O)O` [Example 25, 1-[4-(4-fluorobenzyloxy)-3-isobutylbenzoyl]-4-isobutylpiperazine oxalate]: the “CAP: acid secretion inhibitory rate” value in data set [1] (setting [3]) stood at 95%. `CC(C)Cc1cc(C(=O)N2CCN(CC(C)C)CC2)ccc1OCc1ccc(F)c(F)c1` [Example 26, 1-[4-(3,4-difluorobenzyloxy)-3-isobutylbenzoyl]-4-isobutylpiperazine]: in data set [1] (setting [3]), the “CAP: acid secretion inhibitory rate” value amounted to 99%. In the case of `CC(C)Cc1cc(C(=O)N2CCN(CC(C)C)CC2)ccc1OCc1ccc(F)cc1F` [Example 27, 1-[4-(2,4-difluorobenzyloxy)-3-isobutylbenzoyl]-4-isobutylpiperazine], in data set [1] (setting [3]), the “CAP: acid secretion inhibitory rate” value was 99%.
